Results taken from patent US12605439B2 (priority 2017, dated 2026).

Columns and labels:
SIIN specific T cell = assay type: cell-based
LK^b cells = assay type: cell-based

Substance: QLE SIINFEKL TEW (QLESIINFEKLTEW; OVA peptide used in the Examples) [Ext SIIN, extended model ovalbumin peptide with three flanking residues at both termini]
- activation of T cells compared to free peptide (SIIN specific T cell): equivalent
- presentation of CD8 epitope compared to free peptide loading (LK^b cells): lower
